Data as given in patent US10253085B2, “CD31 peptides for the treatment of thrombotic or autoimmune disorders” (INSERM (INSTITUT NATIONAL DE LA SANTE ET DE LA RECHERCHE …, priority 2008, dated 2019).
Residues, ends and D or L forms follow the SMILES beside them.

Assays:
[1] = biological target: T1, peptide 551-574 coated on CM5 chips (Mus musculus, UniProt Q08481); experiment: Surface plasmon resonance (BIAcore) homophilic binding of peptide 551-574; settings: homophilic interaction
T1 construct: made in house; host or cells: chemical synthesis (no expression host)
Method: Homophilic binding association and dissociation constants were calculated by surface plasmon resonance (BIAcore® 2000, GE). In brief, peptide 551-574 was coated at 3400 resonance units (RU) on CM5 chips according to the manufacturer's instructions. Soluble peptide 551-574 (12.5, 25, 50 and 100 μM in 200 μl of 10 mM HEPES pH 7.4, 150 mM NaCl, 0.005% Tween 20) was injected at 20 μl/min at 25° C., on the peptide-coated channel and on an uncoated channel. Dissociation was monitored for 300 seconds. Association (kon) and dissociation (koff) constants were calculated using the BlAevaluation® 3.0 Software (GE).

scramble peptide = experiment: Surface plasmon resonance (BIAcore), channel coated with the scramble peptide; assay type: binding; settings: injection of soluble peptide
[2] = system: spleen cells from C57Bl/6 (CD31^+/+) mice; experiment: Proliferation in response to TCR stimulation, CD31+/+ spleen cells; assay type: cell-based, mouse; settings: peptide 25, 50, 100 μM, scramble peptide 100 μM
Method: CD8^+ T cell-mediated cytolytic activity against allogeneic mouse aortic smooth muscle cells and measurement of macrophage gelatinase (MMP-2/9) activity were performed as previously described for human cells in Caligiuri et al. (2006 Arterioscler Thromb Vasc Biol 26:618-623) using kits and reagents from Invitrogen. Briefly, primary cultures of FVB/N mouse aorta smooth muscle cells were labelled with the lipophylic tracer DIO (green) and co-cultured for 3 hours with CD8+ T cell-enriched spleen cells from C57Bl/6 mice (n=3 scramble peptide and n=3 peptide 551-574, 50 μM). Cytolysis was evaluated by intracellular accumulation of propidium iodide (PI). Cells were analysed by flow cytometry and the % of cytolysis was calculated by expressing the number of dead (PI+) cells among the target (DIO+) cells. Intracellular MMP-2/9 (gelatinase) activity was measured by flow cytometry in 7-day bone-marrow derived macrophages from C57Bl/6 mice (n=3 scramble peptide and n=3 peptide 551-574, 50 μM) three hours after the incorporation of OregonGreen® gelatine (MFI). T-cell proliferation was performed using either human peripheral blood mononuclear cells of spleen cells from C57Bl/6 (CD31^+/+) and CD31^−/− mice (Charles River France) as previously described (Caligiuri et al. 2005 Arterioscler Thromb Vasc Biol 25:1659-1664). Briefly, cells were plated in triplicates at 0.2×10^6 cells/well in a U bottom 96-well plate in complete medium (RPMI 1640, 1% pyruvate, 1% glutamine, 1% penicillin-streptomicyne-fungizone, 10% decomplemented fetal calf serum, all from Invitrogen) containing 1 μg/ml anti-mouse CD3/CD28 or 5 μg/ml anti-human CD3 antibodies (BD) as appropriate. CD31 (551-574) and scramble peptide at 25, 50 and 100 μM final concentration were deposited in the wells just before cell plating. Plated cells were cultured for 72 hours in 5% CO2 at 37° C. (^3H) thymidine (0.5 μCi/well) was added for the last 16 hours and proliferation evaluated using a Tomtec harvester and analysis on a Wallac micro beta counter. Data are expressed as mean±SEM of cpm in triplicates.

[3] = system: BALB/c mice primed with TNCB; experiment: Delayed type hypersensitivity (DTH) suppression model; assay type: in vivo, mouse
Method: Delayed type hypersensitivity (DTH) suppression was evaluated as described in the “Current Protocols in Immunology (2001) 4.0.1-4.0.2 Unit 4.2”. Briefly, TNCB (2-chloro-1,3,5-trinitrobenzene, Fluka #79874) was dissolved in acetone/olive oil (1:1 v/v) at a concentration of 10 mg/ml. BALB/c mice (n=6/group) were primed by painting the shaved regions of the abdomen a with a total 0.2 ml of the preparation (n=6/group). The experiment included 3 groups for peptide 551-574 (10, 50, 100 μM) and 1 group treated with scramble peptide at 100 μM). Five days after priming, 10 μl of the TNCB-solvent mixture was painted on the right pinna, 30 minutes after subcutaneous (interscapolar) administration of the peptide 551-574 or the scramble peptide. Ear thickness increases were calculated by subtracting the thickness of the right and the left pinna of each mouse (right-left/left×100), measured at 24 h with a dial caliper (“Pocotest”, Kroeplin Längenmesstechnick). The measure was performed 5 times on each ear and averaged for further analysis. The immunosuppressive effect of the peptide was calculated as % suppression=(1−ΔTE/ΔTS)×100, where ΔT=(ear thickness 24 hr after elicitation)−(baseline ear thickness), […]. Data are expressed as mean±SEM.

[4] = system: apolipoprotein E^−/− mice; experiment: Angiotensin II infusion into aged apolipoprotein E-/- mice: atherosclerotic lesion size and aneurysm formation; assay type: in vivo, mouse
Method: Male 28-week old apolipoprotein E^−/− mice (n=8-10 mice/group) from our breeding facility were maintained on a regular chow diet and kept under standard conditions. Acceleration of atherosclerosis and aneurysm formation was induced by subcutaneous angiotensin II (Sigma, #A9525) infusion (1 mg/kg/d) for 28 days using osmotic minipumps (Alzet, #2004) as previously described (Daugherty et al. J Clin Invest 105:1605-1612). All experiments were approved by our institutional Ethical committee. Atherosclerotic lesion size was measured as previously described (Caligiuri et al. 2005 Arterioscler Thromb Vasc Biol 25:1659-1664). These experiments were repeated twice with similar results.

[5] = system: allogeneic mouse aortic smooth muscle cells; experiment: CD8+ T cell-mediated cytolytic activity against allogeneic smooth muscle cells; assay type: cell-based; settings: peptide 50 μM, 3 hours co-culture
Method: CD8^+ T cell-mediated cytolytic activity against allogeneic mouse aortic smooth muscle cells and measurement of macrophage gelatinase (MMP-2/9) activity were performed as previously described for human cells in Caligiuri et al. (2006 Arterioscler Thromb Vasc Biol 26:618-623) using kits and reagents from Invitrogen. Briefly, primary cultures of FVB/N mouse aorta smooth muscle cells were labelled with the lipophylic tracer DIO (green) and co-cultured for 3 hours with CD8+ T cell-enriched spleen cells from C57Bl/6 mice (n=3 scramble peptide and n=3 peptide 551-574, 50 μM). Cytolysis was evaluated by intracellular accumulation of propidium iodide (PI). Cells were analysed by flow cytometry and the % of cytolysis was calculated by expressing the number of dead (PI+) cells among the target (DIO+) cells. Intracellular MMP-2/9 (gelatinase) activity was measured by flow cytometry in 7-day bone-marrow derived macrophages from C57Bl/6 mice (n=3 scramble peptide and n=3 peptide 551-574, 50 μM) three hours after the incorporation of OregonGreen® gelatine (MFI). […] (^3H) thymidine (0.5 μCi/well) was added for the last 16 hours and proliferation evaluated using a Tomtec harvester and analysis on a Wallac micro beta counter. Data are expressed as mean±SEM of cpm in triplicates.

[6] = system: C57BL/6J mice immunized with MOG35-55 peptide; experiment: Experimental Autoimmune Encephalomyelitis (EAE) model; assay type: in vivo, mouse; settings: single peptide shot
Method: Twelve-week old female C57BL/6J mice were immunized with 300 μg of MOG35-55 peptide emulsified in Complete Freund's Adjuvant 1:1 by volume containing 800 μg of nonviable desiccated Mycobacterium tuberculosis H37RA. A final volume of 200 μl of the emulsion was injected subcutaneously at 4 sites (50 μl/site) over the flanks. In addition, 300 ng of Pertussis toxin was injected intravenously (retro-orbital plexus) on the same day and 2 days later. Clinical signs of EAE ware assessed daily by the following scoring system: 0, no signs; 1, hindlimb weakness; 2, hindlimb weakness and tail paralysis; 3, hindlimb and tail paralysis; 4, hindlimb and tail paralysis and forelimb weakness; 5, moribund state; and 6, death. The peak (waxing phase) occured around day 21. In this C57BL/6J mouse model, there was no waning phase as assessed in our laboratory up to day 41.
The experiment was carried out with ten mice per group. The mice of each group were treating with either of: • PBS; • PepReg (SEQ ID NO: 3); or • PepScra (SEQ ID NO: 14).
The dosing was of 50 μg of peptide per mice and per day (i.e. about 2 mg/Kg per day). The peptide was administered by a subcutaneous injection.

Structure (SMILES): CSCC[C@H](NC(=O)[C@H](CO)NC(=O)[C@@H](N)CO)C(=O)N[C@@H](CCCNC(=N)N)C(=O)N[C@H](C(=O)N[C@@H](CO)C(=O)N1CCC[C@H]1C(=O)N[C@@H](CCCNC(=N)N)C(=O)N[C@@H](CO)C(=O)N[C@@H](CO)C(=O)N[C@H](C(=O)N[C@@H](CC(C)C)C(=O)N[C@@H](C)C(=O)N[C@H](C(=O)N[C@@H](CCCNC(=N)N)C(=O)N[C@H](C(=O)N[C@@H](Cc1ccccc1)C(=O)N[C@@H](CC(C)C)C(=O)N[C@@H](C)C(=O)N1CCC[C@H]1C(=O)N[C@@H](Cc1c[nH]c2ccccc12)C(=O)N[C@@H](CCCCN)C(=O)N[C@@H](CCCCN)C(=O)O)C(C)C)C(C)C)[C@@H](C)O)[C@@H](C)O [peptide 551-574] (H-SSMRTSPRSSTLAVRVFLAPWKK-OH)
- kon ([1]; 25° C., analyte 12.5-100 μM, read-out: association constant (kon)): 134 ± 120 M⁻¹ s⁻¹
- koff ([1]; 25° C., read-out: dissociation constant (koff)): 0.00158 s⁻¹
- Kd ([1]; read-out: affinity at equilibrium): 17.8 ± 9.7 µM
- signal on a channel coated with the scramble peptide (scramble peptide): negligible signal
- proliferation of CD31+/+ spleen cells in response to TCR stimulation [2]: inhibits in a dose-dependent manner
- proliferation of CD31+/+ spleen cells in response to TCR stimulation ([2]; listed as mouse CD31 peptide 551-574): dose-dependent inhibition
- immunosuppression in DTH model ([3]; single subcutaneous administration of 50 μM): Effective immunosuppression
- suppression of distal recall of a hapten-elicited specific immune response (ear thickness) ([3]; single subcutaneous administration, peptide 10, 50, 100 μM, scramble 100 μM): suppressed in a dose-dependent manner
- formation of atherothrombotic abdominal aortic aneurysms (AAA) ([4]; daily subcutaneous administration of 50 μM): prevented
- acceleration of plaque growth in the aortic root ([4]; daily subcutaneous administration of 50 μM, 28 days angiotensin II): prevented
- mice with abdominal aortic aneurysm (AAA) present ([4]; peptide-treated mice, both experiments (Exp #1, Exp #2), controls 8/10 and 6/8): 1/8
- CD8+ T cell-dependent cytolysis of murine aortic smooth muscle cells [5]: inhibited
- duration of protective effect in EAE [6]: up to 5 days
